Measured values: ChEMBL document CHEMBL1139664, “Identification of a novel series of tetrahydrodibenzazocines as inhibitors of 17beta-hydroxysteroid dehydrogenase type 3” (Bioorg Med Chem Lett, 2006)

Assays:
[1] = molecular target: T1, 17-beta-hydroxysteroid dehydrogenase type 3 (Homo sapiens, UniProt P37058); test: Inhibition of 17beta-HSD3
T1 sequence (P37058 whole entry): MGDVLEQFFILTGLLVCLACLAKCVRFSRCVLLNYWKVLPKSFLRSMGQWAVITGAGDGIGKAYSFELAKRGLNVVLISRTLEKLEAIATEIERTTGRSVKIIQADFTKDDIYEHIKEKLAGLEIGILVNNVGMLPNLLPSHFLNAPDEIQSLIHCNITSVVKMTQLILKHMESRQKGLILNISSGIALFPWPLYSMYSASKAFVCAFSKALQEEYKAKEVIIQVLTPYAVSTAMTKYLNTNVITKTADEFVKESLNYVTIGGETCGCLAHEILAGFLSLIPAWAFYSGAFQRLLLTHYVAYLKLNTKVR

[2] = molecular target: T1, 17-beta-hydroxysteroid dehydrogenase type 3; test: Inhibition of 17beta-HSD3 by SEAP assay
Liver microsomes = test: Stability in human liver microsome at 10 uM; type: ADME

| Compound | IC50 [1] [µM] | IC50 [2] [µM] | Stability (Liver microsomes) [nmol/mg/min] |
| --- | --- | --- | --- |
| CC(=O)N1Cc2cc(-c3cccc(CN)c3)ccc2CCc2cc(Cl)ccc21 | 0.29 | 0.18 |  |
| CC(=O)N1Cc2ccccc2CSc2ccccc21 | 0.4 | 0.32 |  |
| CC(=O)N1Cc2ccccc2CSc2cc(S(C)(=O)=O)ccc21 | > 10 |  |  |
| CC(=O)N1Cc2cc(-c3ccccc3)ccc2CCc2cc(Cl)ccc21 | 0.004 | 0.018 |  |
| CC(=O)N1Cc2ccccc2CNc2ccccc21 | 4.74 | > 10 |  |
| CC(=O)N1Cc2ccccc2CSc2ccc(Cl)cc21 | 0.03 | 0.17 |  |
| CC(=O)N1Cc2ccccc2/C=C\c2cc(Cl)ccc21 | 0.24 | 0.5 |  |
| CC(=O)N1Cc2cc(-c3ccccc3)ccc2CCc2ccccc21 |  | 0.004 |  |
| CC(=O)N1Cc2ccccc2CCc2ccccc21 | 0.09 | 0.22 |  |
| CC(=O)N1Cc2cc(Br)ccc2CCc2ccccc21 | 0.009 | 0.032 |  |
| CC(=O)N1Cc2ccc(NCc3ccccc3)cc2CCc2ccccc21 | 0.008 | 0.004 |  |
| CC(=O)N1Cc2ccccc2CSc2ccc(C(F)(F)F)cc21 | 2.81 |  |  |
| NC(=O)N1Cc2ccc(Br)cc2CCc2ccccc21 | 0.28 | 0.93 |  |
| CC(=O)N1Cc2cc(-c3ccc(C#N)cc3)ccc2CCc2cc(Cl)ccc21 | 0.003 | 0.019 |  |
| COc1cccc(-c2ccc3c(c2)CN(C(C)=O)c2ccc(Cl)cc2CC3)c1 | 0.008 | 0.053 |  |
| CC(=O)N1Cc2cc(-c3ccccc3NS(C)(=O)=O)ccc2CCc2cc(Cl)ccc21 | 0.002 | 0.009 |  |
| CC(=O)N1Cc2ccccc2CCc2cc(Cl)ccc21 | 0.07 | 0.63 |  |
| CC(=O)N1Cc2cc(-c3cccc(C#N)c3)ccc2CCc2cc(Cl)ccc21 | 0.003 | 0.015 |  |
| CC(=O)N1Cc2ccccc2CSc2cc(Cl)c(Cl)cc21 | 0.01 | 0.13 |  |
| CCN1Cc2ccc(Br)cc2CCc2ccccc21 | > 1 | 2.2 |  |
| CC(=O)N1Cc2ccccc2CSc2cc(F)ccc21 | 0.09 | 0.29 |  |
| CC(=O)N1Cc2ccccc2CSc2cc(O)ccc21 | 4.86 |  |  |
| CC(=O)N1Cc2cc(-c3ccccc3CO)ccc2CCc2cc(Cl)ccc21 | 0.0009 | 0.002 |  |

| Compound | IC50 [1] [µM] | IC50 [2] [µM] | Stability (Liver microsomes) [nmol/mg/min] |
| --- | --- | --- | --- |
| CC(=O)c1ccccc1-c1ccc2c(c1)CN(C(C)=O)c1ccc(Cl)cc1CC2 |  | 0.0005 |  |
| CC(=O)N1Cc2ccccc2CSc2cc(Br)ccc21 | 0.25 | 0.12 |  |
| COc1ccc2c(c1)SCc1ccccc1CN2C(C)=O | 2.06 | > 10 |  |
| CNC(=O)c1ccccc1-c1ccc2c(c1)CN(C(C)=O)c1ccc(Cl)cc1CC2 | 0.025 | 0.025 |  |
| CC(=O)N1Cc2ccccc2CSc2cc(Cl)ccc21 | 0.1 | 0.16 |  |
| COC(=O)c1ccccc1-c1ccc2c(c1)CN(C(C)=O)c1ccc(Br)cc1CC2 | 0.0007 | 0.001 | 0.4 |
| COC(=O)c1cccc(-c2ccc3c(c2)CN(C(C)=O)c2ccc(Cl)cc2CC3)c1 | 0.0014 | 0.002 |  |
| COc1ccc(-c2ccc3c(c2)CN(C(C)=O)c2ccc(Cl)cc2CC3)cc1 | 0.003 | 0.048 |  |
| CC(=O)N1Cc2ccc(Br)cc2CCc2ccccc21 | 0.007 | 0.036 |  |
| O=C(C1CC1)N1Cc2ccc(Br)cc2CCc2ccccc21 | 0.32 | 1.75 |  |
| COC(=O)c1ccccc1-c1ccc2c(c1)CN(C(C)=O)c1ccc(Cl)cc1CC2 |  | 0.0005 | 0.9 |
| CC(=O)N1Cc2ccccc2CSc2cc(C)ccc21 | 1 | 0.87 |  |
| CC(=O)N1Cc2ccc(NC(=O)c3ccccc3)cc2CCc2ccccc21 | 0.16 | 0.26 |  |
| CC(=O)N1Cc2ccccc2CSc2c1ccc(Cl)c2Cl | 0.76 | 1.3 |  |
| CC(=O)N1Cc2ccccc2COc2ccccc21 | 2.97 |  |  |
| CC(=O)N1Cc2ccc(C(N)=O)cc2CCc2ccccc21 | > 1 | 2.98 |  |
| CC(=O)N1Cc2ccccc2CCc2ccc(Cl)cc21 | 0.05 | 0.13 |  |
| CC(=O)N1Cc2cc(-c3cccc(NS(C)(=O)=O)c3)ccc2CCc2cc(Cl)ccc21 | 0.14 | 0.19 |  |
| CC(=O)N1Cc2cc(-c3ccccc3C#N)ccc2CCc2cc(Cl)ccc21 | 0.005 | 0.062 |  |
| CC(=O)N1Cc2ccccc2CSc2cccc(Cl)c21 | 11.5 |  |  |
| CC(=O)N1Cc2ccc(N)cc2CCc2ccccc21 | 0.49 | 0.49 |  |
| CC(=O)N1Cc2cc(-c3ccccc3CN)ccc2CCc2cc(Cl)ccc21 | 0.239 | 0.182 |  |
| COc1ccccc1-c1ccc2c(c1)CN(C(C)=O)c1ccc(Cl)cc1CC2 | 0.002 | 0.005 |  |
